The values below come from patent publication US11447525B2 (NIIGATA UNIVERSITY, priority 2018, dated 2022).

A short description of data set [1]: Degradation test by human blood plasma, MALDI-TOFMS analysis. As to conditions: 50% by mass human blood plasma; 120 min; read-out: degradation resistance (proportion of the peptide retained without degradation). It counts as in vitro ADME. The protocol:
Specifically, a peptide composed of the amino acid sequence represented by SEQ ID NO: 1 (hereafter sometimes referred to as “PCPP11”) was added to human blood plasma having a concentration of 50% by mass, the mixture was sampled immediately after starting the degradation test (after 0 minutes), and then after 5 minutes, after 10 minutes, after 20 minutes, after 30 minutes, after 60 minutes and after 120 minutes, and the samples were analyzed by MALDI-TOFMS (Matrix Assisted Laser Desorption/Ionization-Time Of Flight Mass Spectrometry). In Table 2, “UK” is an abbreviation for “unknown”. Further, the No. shown for each peptide in Table 2 corresponds with the numerical value recorded on the peaks of the graphs shown in FIG. 1.
Each of the peptides described above was added to human blood plasma having a concentration of 50% by mass, the resulting mixture was sampled immediately after starting the degradation test (after 0 minutes), and then after 5 minutes, after 10 minutes, after 20 minutes, after 30 minutes, after 60 minutes and after 120 minutes, and the samples were analyzed by MALDI-TOFMS. The results are shown in FIGS. 2 to 6 and Tables 4 to 6 shown below. Furthermore, the data for the degradation test by human blood plasma using PCPP11 from Reference Example 1 and the degradation tests by human blood plasma using each of the above peptides are collated in FIG. 7 and Table 7. The SEQ ID NO listed for the FAM-labeled peptide represents the SEQ ID NO of the peptide portion. Further, the No. shown for each peptide in Tables 4 to 6 corresponds with the numerical value recorded on the peaks of the graphs shown in FIGS. 2 to 6. In each table, in those cases where the numerical values are shown separated into an upper row and a lower row, the upper row value indicates the proportion (%) of peak area for two or more peptides relative to the total peak area in the MALDI-TOFMS analysis. On the other hand, the lower row value indicates the proportion (%) of each peptide when the peak area for the two or more peptides is deemed to be 100%. Moreover, for example, for the peptide No. 9 shown in Table 4, the left-side “70.0%” indicates the proportion (%) of the peptide No. 9 when the total peak area for the peptides No. 9 to 11 is deemed to be 100%, whereas the right-side “65%” indicates the proportion (%) of the peptide No. 9 relative to the total peak area in the MALDI-TOFMS analysis. This system is also used in the following tables.

In data set [2] the test system is BxPC3 cells, PK-8 cells, AsPC1 cells and MIA-Paca2 cells (PDAC). Nature of the data set: Accumulation of PCPP11 and partially deleted peptides in cells (Reference Example 3). It counts as cell-based, human. To be noted: same method as Test Example 2. The protocol: Test were conducted confirming the accumulation of PCPP11 and partially deleted peptides thereof in BxPC3 cells, PK-8 cells, AsPC1 cells and MIA-Paca2 cells (all cell lines derived from human invasive pancreatic ductal adenocarcinoma (PDAC)) and in H2110 cells (lung adenocarcinoma cells). The peptides shown below in Table 10 were used.
Using the same method as Test Example 2, each peptide was added to each of the cells and then observed under a microscope. In FIG. 16, “full length” indicates the cells to which FAM-PCPP11 was added, “trunc-ver1” indicates cells to which a trunc-ver1-PCPP11 was added, “trunc-ver2” indicates cells to which a trunc-ver2-PCPP11 was added, and “trunc-ver3” indicates cells to which a trunc-ver3-PCPP11 was added.

For data set [3], the system named is pancreatic cancer cells (BxPC3, PK-8, MIA-Paca2, AsPC1, PL45, Panc-1). The data set is described as follows: Accumulation of various peptides in pancreatic cancer cells (Test Example 5). It is filed as cell-based, human. As to conditions: 2 μM, 37° C., 2 hours. The protocol: Test were conducted to confirm the accumulation of various peptides in each of the cells shown below in Table 11. Further, the peptides shown below in Table 12 were used.
Each peptide was added to each of the cells shown in Table 11 in an amount sufficient to achieve a final concentration in the medium of 2 μM, and following cultivation of the cells at 37° C. for 2 hours, the sample was washed 3 times with a medium containing no peptide to remove any peptide within the medium. Subsequently, the incorporation of each of the peptides into each of the cells was evaluated visually using an inverted fluorescence microscope. Prior to the microscopic examination, the culture supernatant to which the peptide had been added was removed, and following washing three times with 1×PBS (−), a trypsin treatment was conducted to remove the adherent cells, and the resultant was immediately transferred into a new 96-well plate and once again suspended in fresh culture solution before the microscopic examination was performed. In FIG. 17, “L” indicates the cells to which FAM-PCPP11 was added, “d” indicates the cells to which FAM-d was added, “LL” indicates the cells to which FAM-LL was added, “LL2” indicates the cells to which FAM-LL2 was added, and “dd” indicates the cells to which FAM-dd was added.

The subject of data set [4] is stomach cancer cells (SCH). The data set is described as follows: Accumulation of FAM-labeled peptides in cells, inverted fluorescence microscope (Test Example 2). It is filed as cell-based, human. To be noted: 2 μM, 37° C., 2 hours. The protocol:
(§1) Tests were conducted to confirm the accumulation of each peptide in each of the cells shown below in Table 8. Further, among the peptides shown below in Table 9, the FAM-PCPP11 used in Test Example 1, the LL peptide in which the N-terminus had been FAM-labeled (FAM-LL), and the Ld peptide in which the N-terminus had been FAM-labeled (FAM-Ld) were used.
(§2) Each of FAM-PCPP11, FAM-LL and FAM-Ld was added to each of the cells shown in Table 8 in an amount sufficient to achieve a final concentration in the medium of 2 μM, and following cultivation of the cells at 37° C. for 2 hours, the sample was washed 3 times with a medium containing no peptide to remove any peptide within the medium. Subsequently, the incorporation of each of the peptides into each of the cells was evaluated visually using an inverted fluorescence microscope. Prior to the microscopic examination, the culture supernatant to which the peptide had been added was removed, and following washing three times with 1×PBS (−), a trypsin treatment was conducted to remove the adherent cells, and the resultant was immediately transferred into a new 96-well plate and once again suspended in fresh culture solution before the microscopic examination was performed. In FIG. 8A, “L” indicates the cells to which FAM-PCPP11 was added, “LL” indicates the cells to which FAM-LL was added, and “Ld” indicates the cells to which FAM-Ld was added. Further, the fluorescent images in the BxPC3 cells indicate a representative example of pancreatic cancer cells.
(§3) Furthermore, FIG. 8B is a graph quantifying the fluorescence detected in each of the above cells in FIG. 8A, with the fluorescence intensity detected in each cell shown relative to a value of 1.0 for the fluorescence detected in the H2110 cells, which is a cell line derived from an adenocarcinoma in a human non-small-cell lung cancer system, to which each of the FAM-PCPP11 and FAM-LL peptides had been added.

Data set [5] concerns human pancreatic cancer growth and progression mouse model (subcutaneous and intraperitoneal human pancreatic cancer cell-transplanted). Nature of the data set: Selective absorption into tissues of human pancreatic cancer growth and progression mouse model, fluorescence signal (Test Examples 3, 4, Reference Example 2). It is filed as in vivo, Balb/c nu/nu mouse. As to conditions: 200 μg intravenously, 30 minutes after injection. The protocol: Subsequently, 200 μg of each of the fluorescent labeled peptides prepared above in “1.” was injected intravenously into a human pancreatic cancer growth and progression mouse model (Balb/c nu/nu mouse, subcutaneous and intraperitoneal human pancreatic cancer cell-transplanted model). The pharmacokinetics of the peptide 30 minutes after the intravenous injection were then analyzed by tissue analysis of the freshly dissected specimen of the administered mouse, with the absorption quantified by detection of the fluorescence signal. […] In FIG. 9A, “sc tumor” is an abbreviation for “subcutaneous tumor”. In FIG. 9B, “abd tumor” is an abbreviation for “abdominal tumor”, indicating a tumor formed intraperitoneally. Further, “br” indicates the brain, “hr” indicates the heart, “kd” indicates the kidney, and “liv” indicates the liver. Furthermore, “liv. meta” is an abbreviation for “liver metastatic tumor”, and describes a tumor that has metastasized to the liver. Moreover, “panc” indicates the pancreas, and “sp” indicates the spleen. These same abbreviations are also used in subsequent figures. Furthermore, the term “untreated” in FIG. 9A indicates tissues resected from a mouse that was not administered with any fluorescent labeled peptide.
Specifically, first, either 27 μg or 200 μg of fluorescein was injected intravenously into a human pancreatic cancer growth and progression mouse model (Balb/c nu/nu mouse, subcutaneous and intraperitoneal human pancreatic cancer cell-transplanted model). The pharmacokinetics of the FLC 30 minutes after the intravenous injection were then analyzed by tissue analysis of the freshly dissected specimen of the administered mouse, with the absorption quantified by detection of the fluorescence signal.

The subject of data set [6] is pancreatic cancer cells (BxPC3, PK-8, MIA-Paca2). The data set is described as follows: Accumulation of FAM-labeled peptides in cells, inverted fluorescence microscope (Test Example 2). As to conditions: 2 μM, 37° C., 2 hours. It is filed as cell-based, human. Here is the method:
as §1, §2, §3
Further, each of FAM-PCPP11, FAM-LL and FAM-NmLL was added to each of the cells shown in Table 8 in an amount sufficient to achieve a final concentration in the medium of 2 μM, and following cultivation of the cells at 37° C. for 2 hours, the sample was washed 3 times with a medium containing no peptide to remove any peptide within the medium. Subsequently, the incorporation of each of the peptides into each of the cells was evaluated visually using an inverted fluorescence microscope. […]

SMILES strings stand for the structures. Non-standard residues stand in square brackets, D forms with d. Residues, ends and D or L forms follow the SMILES beside them. *: point of attachment. 5FAM = O=C1OC2(c3ccc(O)cc3Oc3cc(O)ccc32)c2ccc(C(=O)*)cc21

For the compound `C[C@@H](O)[C@H](NC(=O)[C@@H](NC(=O)[C@@H]1CCCN1C(=O)[C@H](CCCNC(=N)N)NC(=O)[C@H](CCCNC(=N)N)NC(=O)c1ccc2c(c1)C(=O)OC21c2ccc(O)cc2Oc2cc(O)ccc21)[C@@H](C)O)C(=O)N[C@@H](Cc1c[nH]c2ccccc12)C(=O)N[C@@H](Cc1c[nH]cn1)C(=O)N[C@@H](CCCCN)C(=O)N1CCC[C@H]1C(=O)O` [No. 13, reference compound] (5FAM-RRPTTWHKP-OH; C-terminus assumed), the remaining at 2 h in data set [1] amounted to 29%. Also, in data set [2], the “order of the strength of fluorescence in the pancreatic cancer cells” value is “full-length≥trunc-ver3>trunc-ver1>>trunc-ver2”.

`C[C@@H](O)[C@H](NC(=O)[C@@H](NC(=O)[C@@H]1CCCN1C(=O)[C@H](CCCNC(=N)N)NC(=O)[C@H](CCCNC(=N)N)NC(=O)CNC(=O)[C@@H]1CCCN1C(=O)CNC(=O)[C@@H]1CCCN1C(=O)[C@H](CCCCN)NC(=O)[C@H](Cc1c[nH]cn1)NC(=O)[C@H](Cc1c[nH]c2ccccc12)NC(=O)[C@@H](NC(=O)[C@@H](NC(=O)[C@@H]1CCCN1C(=O)[C@H](CCCNC(=N)N)NC(=O)[C@H](CCCNC(=N)N)NC(=O)c1ccc2c(c1)C(=O)OC21c2ccc(O)cc2Oc2cc(O)ccc21)[C@@H](C)O)[C@@H](C)O)[C@@H](C)O)C(=O)N[C@@H](Cc1c[nH]c2ccccc12)C(=O)N[C@@H](Cc1c[nH]cn1)C(=O)N[C@@H](CCCCN)C(=O)N1CCC[C@H]1C(=O)O` [FAM-LL2] (5FAM-RRPTTWHKPGPGRRPTTWHKP-OH; C-terminus assumed): the “fluorescence compared with the other peptides” value in data set [3] is “stronger fluorescence”.

Regarding `C[C@H](O)[C@@H](NC(=O)[C@@H](Cc1c[nH]c2ccccc12)NC(=O)[C@@H](Cc1c[nH]cn1)NC(=O)[C@@H](CCCCN)NC(=O)[C@H]1CCCN1C(=O)CNC(=O)[C@@H]1CCCN1C(=O)[C@H](CCCCN)NC(=O)[C@H](Cc1c[nH]cn1)NC(=O)[C@H](Cc1c[nH]c2ccccc12)NC(=O)[C@@H](NC(=O)[C@@H](NC(=O)[C@@H]1CCCN1C(=O)[C@H](CCCNC(=N)N)NC(=O)[C@H](CCCNC(=N)N)NC(=O)c1ccc2c(c1)C(=O)OC21c2ccc(O)cc2Oc2cc(O)ccc21)[C@@H](C)O)[C@@H](C)O)C(=O)N[C@@H](C(=O)N1CCC[C@@H]1C(=O)N[C@H](CCCNC(=N)N)C(=O)N[C@H](CCCNC(=N)N)C(=O)O)[C@H](C)O` [FAM-Ld] (5FAM-RRPTTWHKPG[dP][dK][dH][dW][dT][dT][dP][dR][dR]-OH; C-terminus assumed), the “fluorescence compared with the sample containing FAM-PCPP11” value in data set [4] and in data set [6] was “stronger fluorescence” each time. In addition, in data set [5], the “inhibitory performance on nonspecific absorption into untargeted normal organs” value is on record as “satisfactorily maintained”. For the same compound, the “nonspecific absorption compared with conventional PCPP11” value in data set [5] (FIG. 10A to 10D) was “inhibited even more effectively”. Besides, the “absorption into pancreatic malignant tumors compared with the conventional PCPP11” value in data set [5] (FIG. 11) was “approximately 4 fold”.
